Results on nine compounds are retold here after US20240216248A1, “MICROBIAL GLYCOLIPIDS” (ANALYTICON DISCOVERY GMBH, priority 2021, published 2024).

Data set [1] can be described thus: Emulsification index E24. Particulars: surfactant solution 100 mg/liter; 2 ml hexadecane to 4 ml aqueous sample; measured 24 h later. In kind it is physicochemical. On the procedure: The emulsification index was determined by using a modification of a method described by Cooper and Goldenberg (APPLIED AND ENVIRONMENTAL MICROBIOLOGY, February 1987. p. 224-229). Surfactant solutions were prepared at 100 mg/liter. Emulsifier activity was measured by adding 2 ml of hexadecane to 4 ml of aqueous sample and vortexing at high speed for 1 min. Measurements were made 24 h later. The emulsion index (E24) was calculated using the equation E24(%)=[(height of emulsion layer)/(total height)]×100. Lutensol […] was used as positive control.

The subject of data set [2] is Aspergillus montevidensis. In words: Antimicrobial activity, micro broth dilution assay. In kind it is cell-based. On the procedure: (§1) The antimicrobial activity of selected compounds was determined by micro broth dilution assay.
For orientation: Dilution methods test growth across graded concentrations, often in twofold steps.

Data set [3] concerns Aspergillus ruber. In words: Antimicrobial activity, micro broth dilution assay. The class given is cell-based. On the procedure:
as §1

In data set [4] the test system is Bacillus subtilis. The data set is described as follows: Antimicrobial activity, micro broth dilution assay. In kind it is cell-based. On the procedure: as §1
The subject of data set [5] is Brettanomyces sp. In words: Antimicrobial activity, micro broth dilution assay. In kind it is cell-based. On the procedure:
as §1

In data set [6] the test system is Byssochlamys nivea. The data set is described as follows: Antimicrobial activity, micro broth dilution assay. In kind it is cell-based. To be noted: Paecilomyces niveus. On the procedure:
as §1

Data set [7] concerns Candida parapsilosis. In words: Antimicrobial activity, micro broth dilution assay. The class given is cell-based. Particulars: Lodderomyces parapsilosis. On the procedure: as §1
For data set [8], the system named is Escherichia coli. The data set is described as follows: Antimicrobial activity, micro broth dilution assay. In kind it is cell-based. On the procedure: as §1
Data set [9] concerns Latilactobacillus sakei. In words: Antimicrobial activity, micro broth dilution assay. In kind it is cell-based. On the procedure: as §1
Data set [10] deals with Leuconostoc carnosum. The data set is described as follows: Antimicrobial activity, micro broth dilution assay. The class given is cell-based. On the procedure:
as §1

For data set [11], the system named is Neosartorya sp. The data set is described as follows: Antimicrobial activity, micro broth dilution assay. The class given is cell-based. On the procedure:
as §1

Data set [12] deals with Penicillium chrysogenum. The data set is described as follows: Antimicrobial activity, micro broth dilution assay. The class given is cell-based. On the procedure:
as §1

Data set [13] concerns Penicillium expansum. In words: Antimicrobial activity, micro broth dilution assay. The class given is cell-based. On the procedure:
as §1

The test system of data set [14] is Penicillium paneum. In words: Antimicrobial activity, micro broth dilution assay. In kind it is cell-based. On the procedure: as §1
Data set [15] has as its system Penicillium roquefortii. In words: Antimicrobial activity, micro broth dilution assay. In kind it is cell-based. On the procedure: as §1
Data set [16] concerns Pseudomonas aeruginosa. The data set is described as follows: Antimicrobial activity, micro broth dilution assay. In kind it is cell-based. On the procedure: as §1
The test system of data set [17] is Saccharomyces cerevisiae. In words: Antimicrobial activity, micro broth dilution assay. The class given is cell-based. On the procedure: as §1
Data set [18] has as its system Staphylococcus aureus. In words: Antimicrobial activity, micro broth dilution assay. In kind it is cell-based. On the procedure:
as §1

For data set [19], the system named is Zygosaccharomyces bailii. The data set is described as follows: Antimicrobial activity, micro broth dilution assay. The class given is cell-based. On the procedure:
as §1

Converted amounts (≈) assume the structure as drawn.

For the compound `CC(N)C(O)CCCCCCCCCCCCCCCCC(OC1OC(CO)C(O)C(O)C1O)C(C)O` (stereo not drawn) [B], the E24 index in [1] came out at 99%. The MIC in [2] turned out to be 500 µg/mL (≈ 933 µM); in data set [3] it was 500 µg/mL (≈ 933 µM); in [4], 250 µg/mL (≈ 467 µM); in data set [5] it was 125 µg/mL (≈ 233 µM); in data set [6] it was 500 µg/mL (≈ 933 µM); in data set [7], 250 µg/mL (≈ 467 µM). Further, the MIC in [8] was 600 µg/mL (≈ 1120 µM); in data set [9] it was 500 µg/mL (≈ 933 µM); in data set [10] it was over 500 µg/mL; in data set [11], 125 µg/mL (≈ 233 µM); in data set [12] it was 125 µg/mL (≈ 233 µM); in data set [13] it was 250 µg/mL (≈ 467 µM). For the same compound, the MIC in [14] is 500 µg/mL (≈ 933 µM); in data set [15] it was 250 µg/mL (≈ 467 µM); in data set [16], 250 µg/mL (≈ 467 µM); in data set [17], 125 µg/mL (≈ 233 µM); in [18] it was 250 µg/mL (≈ 467 µM); in data set [19], 125 µg/mL (≈ 233 µM).
Take `CC(O)C(CCCCCCCCCCCCCCCCC(O)C(C)NCC(=O)O)OC1OC(CO)C(O)C(O)C1O` (stereo not drawn) [C]: the E24 index in data set [1] was determined as 100%.
Take `CC(N)C(O)CCCCCCCCCCCCCCC(OC1OC(CO)C(O)C(O)C1O)C(C)O` (stereo not drawn) [Compound A]: in [1], the E24 index came to 95%. Further, the MIC in data set [2] is 250 µg/mL (≈ 492 µM); in data set [3], 125 µg/mL (≈ 246 µM); in data set [4], 250 µg/mL (≈ 492 µM); in data set [5] it was 500 µg/mL (≈ 985 µM); in data set [6] it was over 500 µg/mL; in data set [7], 500 µg/mL (≈ 985 µM). The MIC was 600 µg/mL (≈ 1180 µM) in data set [8]; 125 µg/mL (≈ 246 µM) in data set [9]; 500 µg/mL (≈ 985 µM) in data set [10]; 500 µg/mL (≈ 985 µM) in data set [11]; 125 µg/mL (≈ 246 µM) in data set [12]; 250 µg/mL (≈ 492 µM) in data set [13]. Besides, the MIC in data set [14] is 250 µg/mL (≈ 492 µM); in data set [15], 125 µg/mL (≈ 246 µM); in [16] it was 600 µg/mL (≈ 1180 µM); in data set [17], 250 µg/mL (≈ 492 µM); in [18] it was 250 µg/mL (≈ 492 µM); in [19], 125 µg/mL (≈ 246 µM).
Turning to `CC(O)C(CCCCCCCCCCCCCCCCC(O)C(C)NC=O)OC1OC(CO)C(O)C(O)C1O` (stereo not drawn) [Compound E], the E24 index in data set [1] worked out at 65%.
In data set [1], `CC(N)C(O)C(O)CCCCCCCCCCCCCCCC(OC1OC(CO)C(O)C(O)C1O)C(C)O` (stereo not drawn) [Compound I] registered an E24 index of 95%.
Still for that read-out and setting: the same measure for `CC(O)C(CCCCCCCCCCCCCCCCC(O)C(C)OC1OC(CO)C(O)C(O)C1O)OC1OC(CO)C(O)C(O)C1O` (stereo not drawn) [D]: 90%; for `CC(O)C(O)CCCCCCCCCCCCCCCCC(OC1OC(CO)C(O)C(O)C1O)C(C)O` (stereo not drawn) [F]: 100%; for `CC(O)C(CCCCCCCCCCCCCCCCC(O)C(C)NC(=O)CCC(=O)O)OC1OC(CO)C(O)C(O)C1O` (stereo not drawn) [H]: 94%.
Regarding `CC(N)C(O)/C=C/CCCCCCCCCCCCCCC(OC1OC(CO)C(O)C(O)C1O)C(C)O` (stereo not drawn) [J], the E24 index in [1] is on record as 96%.

By MIC is commonly meant the least concentration at which growth counts as inhibited. High values mean a need for much substance, low ones inhibition by little substance.
